Results from EPA's ToxValDB 9.5.

Tests used:
Rattus norvegicus = details: developmental; duration: 14 days; oral; gavage; M/F; Crl:CD(SD); generation: F1; F1: Developmental: Bone: Skeletal Malformation + F1: Developmental: Whole Body: Nursing Behavior + F1: Developmental: Whole Body: Pup Weight…
[1] = developmental, duration: 54 days, oral, gavage, M/F, CD1, generation: F1, F1: Developmental: Eye: Eye Opening + F1: Developmental: Liver: Liver, Discolored + F1: Developmental: Whole Body: Fetus Or Pup/Neonate, …
[2] = reproduction developmental, duration: 14 days, oral, gavage, F, Crl:CD-1 (ICR) BR, generation: P0, P0: Blood: Hematocrit (HCT) + P0: Blood: Hemoglobin (HGB) + P0: Blood: Lymphocyte + P0: Blood: Monocytes + P0: Blood: Neutrophils + P0: …
[3] = reproduction developmental, duration: 14 days, oral, gavage, F, Crl:CD-1 (ICR) BR, generation: P0, P0: Liver: Hepatocellular Hypertrophy
[4] = reproduction developmental, duration: 14 days, oral, gavage, M/F, Crl:CD-1 (ICR) BR, generation: P0, P0: Eye: Eye Opening + P0: Whole Body: Lactation Index + P0: Whole Body: Pup Mortality + P0: Whole Body: Pup Weight Relative to Litter
[5] = reproduction developmental, duration: 54 days, oral, gavage, F, CD1, generation: P0, P0: Developmental: Uterus: Implantation + P0: Developmental: Whole Body: No. Male Pups per No. of Pups Sexed
[6] = reproduction developmental, duration: 54 days, oral, gavage, F, CD1, generation: P0, P0: Developmental: Uterus: Implantation + P0: Developmental: Whole Body: No. Male Pups per No. of Pups Sexed + P0: Reproductive: Whole Body…
[7] = reproduction developmental, duration: 109 days, oral, gavage, M, Crl:CD-1 (ICR) BR, generation: P0, P0: Blood: Hematocrit (HCT) + P0: Blood: Hemoglobin (HGB) + P0: Blood: Sorbitol Dehydrogenase (SDH), Blood + P0: Kidney: Blood Urea Nitrogen…
[8] = reproduction developmental, duration: 109 days, oral, gavage, M, Crl:CD-1 (ICR) BR, generation: P0, P0: Hepatic: Liver: Alanine Aminotransferase (ALT), Blood + P0: Hepatic: Liver: Alkaline Phosphatase (ALP), Blood + P0: Hepatic: Liver: …
[9] = reproduction developmental, duration: 109 days, oral, gavage, M, Crl:CD-1 (ICR) BR, generation: P0, P0: Liver: Hepatocellular Hypertrophy
[10] = reproduction developmental, multiple, M, Crl:CD-1 (ICR) BR, generation: F1, F1: Reproductive: Prepuce: Preputial Separation + F1: Whole Body: Whole Body: Body Weight Change + F1: Whole Body: Whole Body: Feed …
[11] = reproduction developmental, multiple, M, Crl:CD-1 (ICR) BR, generation: F1, F1: Whole Body: Whole Body: Body Weight Change + F1: Whole Body: Whole Body: Feed Consumption, Absolute
[12] = reproduction developmental, oral, gavage, F, CD1, generation: P0, P0: Blood: Hematocrit (HCT) + P0: Blood: Hemoglobin (HGB) + P0: Blood: Lymphocyte + P0: Blood: Monocytes + P0: Blood: Neutrophils + P0: …
[13] = reproduction developmental, oral, gavage, F, CD1, generation: P0, P0: Liver: Alanine Aminotransferase (ALT), Blood + P0: Liver: Alkaline Phosphatase (ALP), Blood + P0: Liver: Aspartate Aminotransferase (AST…
[14] = reproduction developmental, oral, gavage, F, Crl:CD-1 (ICR) BR, generation: P0, P0: Hepatic: Liver: Alanine Aminotransferase (ALT), Blood + P0: Hepatic: Liver: Alkaline Phosphatase (ALP), Blood + P0: Hepatic: Liver: …
[15] = reproduction developmental, oral, gavage, M, CD1, generation: P0, P0: Blood: Cholesterol (CHOL), Total + P0: Blood: Hematocrit (HCT) + P0: Blood: Hemoglobin (HGB) + P0: Blood: Lymphocyte + P0: Blood: …

OCCC(F)(F)C(F)(F)C(F)(F)C(F)(F)C(F)(F)C(F)(F)F [2-(Perfluorohexyl)ethanol]
LOAEL (Mus musculus; [1]): 120 mg/kg-day | NOAEL (Mus musculus; [1]): 25 mg/kg-day | NEL (Mus musculus; developmental, oral, gavage, M/F, CD1, generation: F1, F1: Eye: Eye Opening + F1: Liver: Liver, Discolored + F1: Prepuce or Vagina: Preputial Separation or Vaginal Patency + F1: Whole Body: Fetus…): 25 mg/kg-day | LEL (Mus musculus; developmental, oral, gavage, M/F, CD1, generation: F1, F1: Eye: Eye Opening + F1: Liver: Liver, Discolored + F1: Whole Body: Fetus Or Pup/Neonate, Small + F1: Whole Body: Lactation Index + F1: …): 100 mg/kg-day | LEL (Mus musculus; [2]): 100 mg/kg-day | NEL (Mus musculus; [2]): 25 mg/kg-day | NEL (Mus musculus; reproduction developmental, duration: 14 days, oral, gavage, F, Crl:CD-1 (ICR) BR, generation: P0, P0: Kidney: Kidney Weight, Absolute + P0: Liver: Liver Weight, Absolute + P0: Liver: Total Bilirubin (TBILI), Blood + P0: Liver: Total …): 100 mg/kg-day | LEL (Mus musculus; [3]): 5 mg/kg-day | NEL (Mus musculus; [3]): 1 mg/kg-day | LEL (Mus musculus; [4]): 100 mg/kg-day | NEL (Mus musculus; [4]): 25 mg/kg-day | NEL (Mus musculus; reproduction developmental, duration: 14 days, oral, gavage, M/F, Crl:CD-1 (ICR) BR, generation: P0, P0: Whole Body: Live Pups Born + P0: Whole Body: Male Pups per Pups Sexed + P0: Whole Body: Viability Index): 100 mg/kg-day | NEL (Mus musculus; reproduction developmental, duration: 42 days, multiple, F, Crl:CD-1 (ICR) BR, generation: P0, P0: Vagina: Vaginal Patency + P0: Whole Body: Body Weight Change + P0: Whole Body: Feed Consumption, Absolute): 25 mg/kg-day | NEL (Mus musculus; reproduction developmental, duration: 42 days, multiple, M, Crl:CD-1 (ICR) BR, generation: P0, P0: Prepuce: Preputial Separation + P0: Whole Body: Body Weight Change + P0: Whole Body: Feed Consumption, Absolute): 25 mg/kg-day | LOAEL (Mus musculus; [5]): 120 mg/kg-day | NOAEL (Mus musculus; [5]): 25 mg/kg-day | LOAEL (Mus musculus; [6]): 120 mg/kg-day | NOAEL (Mus musculus; [6]): 25 mg/kg-day | NOAEL (Mus musculus; reproduction developmental, duration: 54 days, oral, gavage, F, CD1, generation: P0, P0: Reproductive: Whole Body: Fertility Index + P0: Reproductive: Whole Body: Gestation Index + P0: Reproductive: Whole Body: Percent Mating): 120 mg/kg-day | NOAEL (Mus musculus; reproduction developmental, duration: 54 days, oral, gavage, M/F, CD1, generation: F1, F1: Reproductive: Prepuce or Vagina: Preputial Separation or Vaginal Patency): 120 mg/kg-day | LOAEL (Mus musculus; reproduction developmental, duration: 54 days, oral, gavage, M, CD1, generation: P0, P0: Reproductive: Whole Body: Fertility Index + P0: Reproductive: Whole Body: Percent Mating): 120 mg/kg-day | LEL (Mus musculus; [7]): 100 mg/kg-day | NEL (Mus musculus; [7]): 25 mg/kg-day | NEL (Mus musculus; reproduction developmental, duration: 109 days, oral, gavage, M, Crl:CD-1 (ICR) BR, generation: P0, P0: Blood: Lymphocyte + P0: Blood: Monocytes + P0: Blood: Neutrophils + P0: Blood: Red Blood Cell (RBC) + P0: Blood: Reticulocytes + P0: …): 100 mg/kg-day | LOAEL (Mus musculus; [8]): 5 mg/kg-day | NOAEL (Mus musculus; [8]): 1 mg/kg-day | LEL (Mus musculus; [9]): 5 mg/kg-day | NEL (Mus musculus; [9]): 1 mg/kg-day | NOAEL (Mus musculus; reproduction developmental, duration: 109 days, oral, gavage, M, Crl:CD-1 (ICR) BR, generation: P0, P0: Reproductive: Epididymis: Epididymis Weight, Absolute + P0: Reproductive: Epididymis: Epididymis Weight, Relative + P0: Reproductive: …): 100 mg/kg-day | NOAEL (Mus musculus; reproduction developmental, multiple, M, Crl:CD-1 (ICR) BR, generation: F1, F1: Reproductive: Prepuce: Preputial Separation): 100 mg/kg-day | LOAEL (Mus musculus; [10]): 5 mg/kg-day | NOAEL (Mus musculus; [10]): 1 mg/kg-day | LOAEL (Mus musculus; [11]): 100 mg/kg-day | NOAEL (Mus musculus; [11]): 25 mg/kg-day | NEL (Mus musculus; reproduction developmental, oral, gavage, F, CD1, generation: P0, P0: Blood: Calcium (CA), Blood + P0: Blood: Chloride (CL), Blood + P0: Blood: Globulin (G), Blood + P0: Blood: Glucose (GLU), Blood + P0: …): 100 mg/kg-day | LEL (Mus musculus; [12]): 100 mg/kg-day | NEL (Mus musculus; [12]): 25 mg/kg-day | LEL (Mus musculus; [13]): 25 mg/kg-day | NEL (Mus musculus; [13]): 5 mg/kg-day | NEL (Mus musculus; reproduction developmental, oral, gavage, F, CD1, generation: P0, P0: Uterus: Implantation + P0: Whole Body: Fertility Index + P0: Whole Body: Gestation Index + P0: Whole Body: Male Pups per Pups Sexed + P0…): 100 mg/kg-day | LOAEL (Mus musculus; [14]): 5 mg/kg-day | NOAEL (Mus musculus; [14]): 1 mg/kg-day | NEL (Mus musculus; reproduction developmental, oral, gavage, M/F, CD1, generation: F1, F1: Whole Body: Live Pups Born + F1: Whole Body: Viability Index): 100 mg/kg-day | NEL (Mus musculus; reproduction developmental, oral, gavage, M, CD1, generation: P0, P0: Blood: Calcium (CA), Blood + P0: Blood: Globulin (G) + P0: Blood: Glucose (GLU) + P0: Blood: Inorganic Phosphorous (PHOS) + P0: Blood: …): 100 mg/kg-day | LEL (Mus musculus; [15]): 100 mg/kg-day | NEL (Mus musculus; [15]): 25 mg/kg-day | NEL (Mus musculus; reproduction developmental, oral, gavage, M, CD1, generation: P0, P0: Whole Body: Fertility Index + P0: Whole Body: Percent Mating): 100 mg/kg-day | LOAEL (Rattus norvegicus): 225 mg/kg-day
